From US6660910B1, “Selection marker” (Syngenta Mogen B.V., priority 1997, dated 2003)

Columns and labels:
[1] = test system: cotyledons of Lycopersicon esculentum cv. Money Maker; assay: Transformation of tomato cotyledon explants with selection on cyanamide or kanamycin; assay type: cell-based; settings: Kanamycin 100 mg/l during regeneration; for No. of rooting shoots: rooting medium 30 mg/l kanamycin
Protocol: Described below is the method used for transformation of cotyledons of Lycopersicon esculentum cv. Money Maker using Agrobacterium tumefaciens. The binary vectors and Agrobacteria strains for this transformation method are identical to those described above. Tomato seedlings were germinated on Germination Medium (GEM) under a 16 h light period (1700 lux) at 24° C. and a 8 h dark period at 21° C. (The contents of the various media can be found in Table 4). Cotyledon explants of 5 to 7 day old seedlings were cut on sterile filter paper soaked with Washing Medium (WAM) and placed on plates containing Cocultivation Medium (COM). The plates, each containing approximately 50 explants, were incubated overnight under the same conditions as described above.
The pre incubated explants were carefully submerged in the Agrobacterium inoculum for 20 minutes.
The explants were then blotted dry on sterile filter paper and incubated for 48 h on the second set of Cocultivation plates. In procession the explants were incubated for 72 h on plates containing Postcultivation Medium (POM) after which the explants were transferred to Shoot inducing Medium (SIM) containing several concentrations of cyanamide or kanamycin. Every three weeks the explants were subcultured on the same medium. After approximately 8-12 weeks shoots were excised and placed on Root inducing Medium (RIM). Shoots that were able to root were then transferred to Root inducing Medium containing 50 mg/l cyanamide or 30 mg/l kanamycin. Simultaneously leaflets of the rooted shoots were tested for expression of the gus gene in a histochemical GUS assay.

[2] = test system: root segments of Arabidopsis thaliana cv. C24; assay: Arabidopsis root transformation with selection on cyanamide or kanamycin; assay type: cell-based; settings: for Percentage of GUS expressing plants (% of plants staining blue): treatment kanamycin 50 mg/litre; for % Shoots rooting / Nr. of plants (shoots developed into plants and able to root): selection kanamycin 50 mg/litre, rooting medium 25 mg/litre Kanamycin
Protocol: Described below is the method used for transformation of root segments of Arabidopsis thaliana cv. C24 using Agrobacterium tumefaciens. The binary vectors for this transformation method are identical to those described above.
Six mg of Arabidopsis seeds were germinated in a flask containing liquid Germination Medium (GM) under 16 h light period (1700 lux) at 24° C. and a 8 h dark period at 21° C. at 80 rpm. (The contents of various media can be found in Table 4). Roots of 9 days old seedlings were isolated in a sterile petridish and collected in a drop of Germination Medium (GM). Roots were cut in segments of approximately 3-5 mm and approximately 100 explants were spread evenly on a nylon membrane (O 8 cm) which was placed on plates containing Callus Inducing Medium (CIM). The plates were incubated 3 days under the same conditions as described above.
The Agrobacterium strain used in this study harbored a rifampicin selection marker in a C 58 chromosomal background. The construction of the helper strain MOG101 is described by Hood et al. (1993).
Agrobacteria were grown overnight in LB medium with antibiotics (rifampicin 20 mg/l, kanamycin 100 mg/l). The overnight culture was diluted 1:10 in LB without antibiotics and grown for approximately 3 hours. Bacterial suspensions were centrifuged at 1600×g for 15 minutes at room temperature. Bacteria were resuspended in GM and adjusted to OD600=0.1 and used for cocultivation.
The membrane containing approximately 100 explants was incubated for 2 minutes with the Agrobacterium suspension and dried on sterile filter paper to remove excess of bacteria. The membrane with explants are cultured for 48 h on CIM plates. After rinsing the membrane and explants with liquid GM these were incubated on Shoot Induction Medium (SIM) plates containing several concentrations of cyanamide or kanamycin. After 5 days the membrane with the explants was transferred to the same medium (SIM) for subculture. The second subculture was after 2 weeks. Approximately four weeks after cocultivation 60 shoots per cyanamide concentration were excised and placed on plates with Shoot Elongation Medium (SEM) containing 30 mg/l cyanamide. Shoots which were able to root are tested on their transgenic character by testing leaflets and flowers for expression of the gus gene using a histochemical GUS assay.
Three experiments were performed. Shoots obtained from Exp. 98-8 and 98-11 were transferred to rooting medium (SEM) containing 30 mg/litre cyanamide. Shoots obtained from Exp. 98-13 were transferred to rooting medium containing the same concentration as the selection medium (SIM), for results see Table 4a. The shoots obtained from the kanamycin selection (50 mg/litre) were transferred to rooting medium containing 25 mg/litre Kanamycin.

[3] = pMOG410 (gus-nptII), 30 inoculated explants
[4] = pMOG874 (cah-nptII), 35 inoculated explants
[5] = pMOG1156 (gus-nptII-cah), 30 inoculated explants

SMILES: NC[C@H]1O[C@H](O[C@H]2[C@H](O)[C@@H](O[C@H]3O[C@H](CO)[C@@H](O)[C@H](N)[C@H]3O)[C@H](N)C[C@@H]2N)[C@H](O)[C@@H](O)[C@@H]1O [Kanamycin]
- No. of excised shoots [1, 3]: 4
- No. of gus + shoots [1, 3]: 3
- No. of rooting shoots [1, 3]: 3
- No. of excised shoots [1, 4]: 4
- No. of rooting shoots [1, 4]: 1
- No. of excised shoots [1, 5]: 5
- No. of gus + shoots [1, 5]: 4
- No. of rooting shoots [1, 5]: 3
- Percentage of GUS expressing plants (% of plants staining blue) ([2]; pMOG 410, shoots rooted on Kanamycin 25 mg/litre): 100^2%
- % Shoots rooting ([2]; pMOG 1156, Experiment 98-8): 46.8%
- Nr. of plants (shoots developed into plants and able to root) ([2]; pMOG 1156, Experiment 98-8): 29
- % Shoots rooting ([2]; pMOG 1156, Experiment 98-11): 47.5%
- Nr. of plants (shoots developed into plants and able to root) ([2]; pMOG 1156, Experiment 98-11): 19
- % Shoots rooting ([2]; pMOG 1156, Experiment 98-13): 20.6%
- Nr. of plants (shoots developed into plants and able to root) ([2]; pMOG 1156, Experiment 98-13): 14
- Percentage of GUS expressing plants (% of plants staining blue) ([2]; pMOG 1156, column headed C30 in rooting medium): 82-92%
